% of control and % of inhibition data for four compounds are collected here from ChEMBL document CHEMBL5465560, “Selectivity Literature for EUbOPEN Chemogenomic Library” (2024).

Test [1] addresses T1, Mitogen-activated protein kinase kinase kinase 15 (Homo sapiens) (UniProt Q6ZN16).
T1 sequence (whole entry): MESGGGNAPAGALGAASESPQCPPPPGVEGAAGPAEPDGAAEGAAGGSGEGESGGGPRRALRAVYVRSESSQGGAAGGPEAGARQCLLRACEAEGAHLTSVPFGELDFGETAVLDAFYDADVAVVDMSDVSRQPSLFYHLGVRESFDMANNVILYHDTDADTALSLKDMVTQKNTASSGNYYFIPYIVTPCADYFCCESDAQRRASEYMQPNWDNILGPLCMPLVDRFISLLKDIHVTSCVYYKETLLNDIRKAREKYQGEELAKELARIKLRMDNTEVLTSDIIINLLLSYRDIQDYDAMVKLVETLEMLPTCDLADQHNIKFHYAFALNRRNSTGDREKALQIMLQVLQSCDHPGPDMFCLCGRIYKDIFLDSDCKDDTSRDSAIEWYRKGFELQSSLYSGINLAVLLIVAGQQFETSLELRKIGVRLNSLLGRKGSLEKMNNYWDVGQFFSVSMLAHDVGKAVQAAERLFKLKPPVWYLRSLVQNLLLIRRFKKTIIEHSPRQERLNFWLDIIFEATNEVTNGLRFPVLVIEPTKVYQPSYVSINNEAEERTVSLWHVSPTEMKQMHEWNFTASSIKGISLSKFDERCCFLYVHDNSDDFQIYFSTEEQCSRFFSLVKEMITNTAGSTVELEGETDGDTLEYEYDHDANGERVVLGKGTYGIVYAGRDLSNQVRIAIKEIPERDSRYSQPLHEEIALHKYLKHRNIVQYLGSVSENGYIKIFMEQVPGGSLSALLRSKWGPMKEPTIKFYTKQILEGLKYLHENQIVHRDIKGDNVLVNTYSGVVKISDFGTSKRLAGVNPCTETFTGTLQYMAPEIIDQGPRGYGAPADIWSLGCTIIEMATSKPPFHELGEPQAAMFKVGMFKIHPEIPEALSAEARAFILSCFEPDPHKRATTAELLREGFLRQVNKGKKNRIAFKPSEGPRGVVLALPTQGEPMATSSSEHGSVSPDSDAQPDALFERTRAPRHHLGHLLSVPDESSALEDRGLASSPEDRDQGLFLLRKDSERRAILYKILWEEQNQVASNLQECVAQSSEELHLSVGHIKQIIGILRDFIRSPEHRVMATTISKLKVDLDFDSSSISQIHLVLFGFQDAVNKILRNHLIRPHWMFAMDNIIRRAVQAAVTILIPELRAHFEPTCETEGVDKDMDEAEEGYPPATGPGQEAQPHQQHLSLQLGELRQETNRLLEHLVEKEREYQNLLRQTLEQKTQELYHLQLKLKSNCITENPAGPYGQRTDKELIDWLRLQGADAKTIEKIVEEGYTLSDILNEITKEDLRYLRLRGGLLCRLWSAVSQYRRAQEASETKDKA
Nature of the test: Selectivity interaction (KinomeScan (DiscoverX)) EUB0000695a MAP3K15. The note with it: at 100 nM.

In test [2] the target is Serine/threonine-protein kinase 33 (Homo sapiens) (UniProt Q9BYT3). Nature of the test: Selectivity interaction (KinomeScan (DiscoverX)) EUB0000695a STK33. To be noted: at 100 nM.
Serine/threonine-protein kinase 33 (Homo sapiens), sequence (Q9BYT3 whole entry, looked up): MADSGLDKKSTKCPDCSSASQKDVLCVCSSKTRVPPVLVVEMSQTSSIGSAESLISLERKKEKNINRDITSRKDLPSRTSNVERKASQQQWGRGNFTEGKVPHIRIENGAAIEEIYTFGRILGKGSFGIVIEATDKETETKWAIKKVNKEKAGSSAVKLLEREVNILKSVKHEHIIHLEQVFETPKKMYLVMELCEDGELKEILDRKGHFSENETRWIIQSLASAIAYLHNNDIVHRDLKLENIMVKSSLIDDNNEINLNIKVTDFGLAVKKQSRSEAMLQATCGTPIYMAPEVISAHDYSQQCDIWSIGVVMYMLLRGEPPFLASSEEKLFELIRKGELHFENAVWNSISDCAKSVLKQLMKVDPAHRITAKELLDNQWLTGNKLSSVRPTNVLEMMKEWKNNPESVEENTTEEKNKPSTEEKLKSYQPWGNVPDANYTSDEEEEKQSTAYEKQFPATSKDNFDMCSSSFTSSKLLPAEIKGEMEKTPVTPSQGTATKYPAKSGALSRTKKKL
Test [3] concerns the target T2, Mitogen-activated protein kinase kinase kinase kinase 2 (Homo sapiens) (UniProt Q12851).
T2 sequence (whole entry): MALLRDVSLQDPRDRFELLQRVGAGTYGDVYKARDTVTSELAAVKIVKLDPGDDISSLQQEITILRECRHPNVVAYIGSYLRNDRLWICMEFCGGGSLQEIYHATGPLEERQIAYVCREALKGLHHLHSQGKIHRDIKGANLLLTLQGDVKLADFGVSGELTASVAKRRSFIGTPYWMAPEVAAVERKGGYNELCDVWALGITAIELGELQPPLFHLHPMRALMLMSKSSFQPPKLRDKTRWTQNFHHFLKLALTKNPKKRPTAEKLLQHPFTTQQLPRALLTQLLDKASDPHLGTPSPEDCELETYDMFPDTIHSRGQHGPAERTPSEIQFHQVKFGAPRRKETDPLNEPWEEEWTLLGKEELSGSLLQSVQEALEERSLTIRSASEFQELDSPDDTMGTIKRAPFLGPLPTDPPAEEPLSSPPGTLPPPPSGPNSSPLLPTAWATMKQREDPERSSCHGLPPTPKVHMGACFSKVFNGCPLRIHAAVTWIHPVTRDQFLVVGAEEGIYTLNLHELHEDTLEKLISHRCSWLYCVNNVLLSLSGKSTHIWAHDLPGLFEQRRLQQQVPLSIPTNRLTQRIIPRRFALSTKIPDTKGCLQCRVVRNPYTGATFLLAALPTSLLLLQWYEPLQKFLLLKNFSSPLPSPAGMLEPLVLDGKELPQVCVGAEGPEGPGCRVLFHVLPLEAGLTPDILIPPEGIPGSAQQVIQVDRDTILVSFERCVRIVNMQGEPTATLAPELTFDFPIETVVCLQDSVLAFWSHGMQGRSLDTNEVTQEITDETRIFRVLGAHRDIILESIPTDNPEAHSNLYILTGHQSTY
Nature of the test: Selectivity interaction (SelectScreen profiling (Invitrogen)) EUB0000607a MAP4K2. The note with it: at 2 µM.

Test [4] deals with Mast/stem cell growth factor receptor Kit (Homo sapiens, UniProt P10721). As to the kind of experiment: Selectivity interaction (Kinase panel (Invitrogen)) EUB0000639a KIT. To be noted: at 200 nM.
Mast/stem cell growth factor receptor Kit, sequence (P10721 whole entry): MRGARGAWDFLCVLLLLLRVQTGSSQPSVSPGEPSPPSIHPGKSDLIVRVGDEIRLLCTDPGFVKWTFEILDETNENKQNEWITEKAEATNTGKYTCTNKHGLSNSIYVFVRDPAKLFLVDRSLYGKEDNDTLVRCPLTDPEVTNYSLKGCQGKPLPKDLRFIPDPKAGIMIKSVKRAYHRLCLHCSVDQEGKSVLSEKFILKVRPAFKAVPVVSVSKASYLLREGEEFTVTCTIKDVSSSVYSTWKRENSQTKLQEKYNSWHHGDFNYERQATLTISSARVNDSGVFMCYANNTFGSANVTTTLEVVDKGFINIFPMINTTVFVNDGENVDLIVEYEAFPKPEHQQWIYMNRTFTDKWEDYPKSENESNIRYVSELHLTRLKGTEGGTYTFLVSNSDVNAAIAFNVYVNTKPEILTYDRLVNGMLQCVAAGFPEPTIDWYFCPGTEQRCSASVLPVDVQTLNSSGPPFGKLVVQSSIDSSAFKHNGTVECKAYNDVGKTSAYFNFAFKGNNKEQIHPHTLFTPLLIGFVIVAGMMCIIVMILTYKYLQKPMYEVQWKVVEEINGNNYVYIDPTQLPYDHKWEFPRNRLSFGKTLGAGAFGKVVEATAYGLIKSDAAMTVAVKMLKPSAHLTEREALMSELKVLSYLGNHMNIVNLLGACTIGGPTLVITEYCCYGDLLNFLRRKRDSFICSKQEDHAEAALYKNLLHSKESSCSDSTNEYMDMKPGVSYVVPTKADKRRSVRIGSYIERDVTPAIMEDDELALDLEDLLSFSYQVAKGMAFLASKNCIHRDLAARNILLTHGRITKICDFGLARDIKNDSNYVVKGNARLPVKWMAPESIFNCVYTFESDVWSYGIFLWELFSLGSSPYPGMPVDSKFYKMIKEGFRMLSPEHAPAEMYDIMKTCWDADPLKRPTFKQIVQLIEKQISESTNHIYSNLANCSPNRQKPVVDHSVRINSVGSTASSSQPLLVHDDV
Test [5] concerns the target Aurora kinase B (Homo sapiens, UniProt Q96GD4). As to the kind of experiment: Selectivity interaction (KinomeScan (DiscoverX)) EUB0000618a AURKB. The note with it: at 10 µM.

Aurora kinase B, sequence (Q96GD4 whole entry): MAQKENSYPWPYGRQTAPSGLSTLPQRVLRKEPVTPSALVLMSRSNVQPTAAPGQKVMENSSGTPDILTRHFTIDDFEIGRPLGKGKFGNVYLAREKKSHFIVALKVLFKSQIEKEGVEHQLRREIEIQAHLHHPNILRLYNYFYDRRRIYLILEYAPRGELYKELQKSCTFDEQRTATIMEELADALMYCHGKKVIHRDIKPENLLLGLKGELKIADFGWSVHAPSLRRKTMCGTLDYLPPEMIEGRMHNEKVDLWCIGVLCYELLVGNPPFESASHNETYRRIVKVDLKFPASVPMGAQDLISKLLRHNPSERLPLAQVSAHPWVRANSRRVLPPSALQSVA

Turning to `Cc1cc(F)c(C(=O)Nc2cccc(-c3nncn3C(C)C)n2)cc1-n1cnc(C2CC2)c1`, the figures for the % of control in test [1] and in test [2] were 66% and 78%, respectively.

Regarding `CNC(=O)Nc1ccc(-c2nc(N3CC4CCC(C3)O4)c3cnn(C4CCC5(CC4)OCCO5)c3n2)cc1`, in test [3], the % of inhibition worked out at 3%.

In turn, `CC[C@@H]1[C@H](F)C(=O)N[C@@H]1COc1nccc2cc(C(N)=O)c(OC)cc12` [ZIMLOVISERTIB] registered a % of inhibition in test [4] of 1.04%.

`O[C@H]1CC[C@H](Nc2ncc3nc(Nc4c(F)cc(F)cc4F)n([C@H]4CCOC4)c3n2)CC1` displayed a % of control in test [5] of 100%.
